“And” between values parts separate entries of the source, which are not always exact repeats. Equal entries are not always repeated.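 Growth conditions: 96-well plates. Treatment: test compound, 48 hours, 5 concentrations. Analysis: linear interpolation between bracketing concentrations; unreached endpoints set to highest concentration. At the GI50, growth is halved. At the TGI there is no net growth.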
Columns and labels:
Assay in all cases: NCI-60 cell line screen, 48 h
HOP-62 NSCLC = system: HOP-62 NSCLC
RXF 393 renal = system: RXF 393 renal
SN12C renal = system: SN12C renal
A549 NSCLC = system: A549 NSCLC
ACHN renal = system: ACHN renal
SF-539 CNS = system: SF-539 CNS
SK-MEL-5 melanoma = system: SK-MEL-5 melanoma
HCC-2998 colon = system: HCC-2998 colon

SMILES | GI50 (HOP-62 NSCLC) | TGI (HOP-62 NSCLC) | GI50 (RXF 393 renal) | TGI (RXF 393 renal) | GI50 (SN12C renal) | TGI (SN12C renal) | GI50 (A549 NSCLC) | TGI (A549 NSCLC) | GI50 (ACHN renal) | TGI (ACHN renal) | GI50 (SF-539 CNS) | TGI (SF-539 CNS) | GI50 (SK-MEL-5 melanoma) | TGI (SK-MEL-5 melanoma) | GI50 (HCC-2998 colon) | TGI (HCC-2998 colon)
COc1cccc(-c2nn(-c3ccccc3)cc2-c2ccnc(NCCNS(=O)(=O)c3ccc(C(F)(F)F)cc3)c2)c1 | 4.16 µM | 43.6 µM | 2.1 µM | 5.5 µM | 2.27 µM | 5.39 µM | 3.71 µM | 32 µM | 3.4 µM | > 100 µM | 2.48 µM | 6.28 µM | 1.72 µM | 3.11 µM | 3.36 µM | 24.8 µM
C[C@H]1CCC/C=C/[C@@H]2C[C@H](O)C[C@H]2[C@H](O)[C@H](S(=O)c2ccc(O)cc2)CC(=O)O1 (stereo partly drawn) | 0.0855 µM | > 65.6 µM | < 0.0106 µM | 0.061 µM | 0.0497 µM | 0.489 µM | 0.0422 µM | > 100 µM | 0.0654 µM | 0.41 µM | < 0.0157 µM | > 36.4 µM | – | 0.121 µM | 0.0278 µM | 0.0951 µM
CC1(C)SC2C(C(=O)O)N=C(Cc3ccccc3)N2C1C(=O)O (stereo not drawn) | – | > 100 µM | – | > 100 µM | – | > 100 µM | – | > 100 µM | – | > 100 µM | – | 57.3 µM | – | > 100 µM | – | 56.9 µM
O=S(=O)(NCCNc1cc(-c2cn(-c3ccccc3)nc2-c2cccc(O)c2)ccn1)c1ccc(C(F)(F)F)cc1 | 2.56 µM | 9.14 µM | 2.52 µM | 10 µM | 2.31 µM | 5.49 µM | 3.89 µM | 18.2 µM | – | – | 1.59 µM | 3.48 µM | 1.78 µM | 3.36 µM | 2.04 µM | 4.45 µM
CCN1C(=O)N(CC)C2C1NN=c1s/c(=C3\C(=O)N(CCC(C)C)c4ccccc43)c(=O)n12 (stereo not drawn) | 1.89 µM | 6.45 µM | 0.738 µM | 3.62 µM | 2.01 µM | 4.99 µM | – | – | 1.86 µM | 6.7 µM | 1.11 µM | 2.42 µM | 1.55 µM | 3.41 µM | 1.92 µM | 4.54 µM
COc1cc2c(c(OC)c1OC)-c1ccc([O-])c(=O)cc1[C@@H](NC(C)=O)CC2.COc1cc2c(c(OC)c1OC)-c1ccc([O-])c(=O)cc1[C@@H](NC(C)=O)CC2.[Cu+2] | 5.67 µM | > 100 µM | 3.87 µM | > 100 µM | 4.97 µM | > 100 µM | 6.5 µM | > 100 µM | 7.83 µM | > 100 µM | 1.88 µM | 4.53 µM | 2.94 µM | 12 µM | 2.58 µM | 7.2 µM
CCCCCCCC1c2cc3[nH]c(cc4nc(cc5[nH]c(cc(n2)[C@@]1(C)CC(=O)N(C)C)c(C)c5CCC(=O)O)C(CCC(=O)O)=C4C)cc3C (stereo partly drawn) | – | 35.4 µM | – | 33.9 µM | – | 76.1 µM | – | > 100 µM | – | 35.8 µM | – | 34.2 µM | – | 51 µM | – | 37.8 µM
CN1CCN(C(=O)c2ccc(NC(=O)Nc3ccc(N(C)c4ccnc(Nc5ccc(CS(C)(=O)=O)cc5)n4)cc3)cc2)CC1 | 7.61 µM | > 25 µM | 24.2 µM | > 25 µM | 9.42 µM | > 25 µM | > 23.3 µM | > 25 µM | > 25 µM | > 25 µM | 11.2 µM | > 25 µM | 12.4 µM | > 25 µM | > 25 µM | > 25 µM
O=C1C(=O)c2cc([N+](=O)[O-])ccc2-c2ccccc21 | – | – | 1.96 µM | 3.43 µM | 1.66 µM | 3.05 µM | 1.9 µM | 3.56 µM | 1.6 µM | 2.96 µM | 1.82 µM | 3.24 µM | 1.8 µM | 3.2 µM | 1.77 µM | 3.18 µM
CNC(=O)c1ccc(Nc2ncc(C(F)(F)F)c(NCc3nccnc3N(C)S(C)(=O)=O)n2)cc1 | 2.16 µM and 2.07 µM and 1.98 µM | > 10 µM and 9.71 µM and 9.8 µM | 0.637 µM and 1.39 µM and 0.575 µM | 2.74 µM and 3.76 µM and 2.85 µM | 3.46 µM and 3.4 µM and 3.41 µM | > 10 µM and 11.8 µM and 14.7 µM | 2.79 µM and 2.94 µM and 3.13 µM | > 10 µM and 8.79 µM and 12.1 µM | 1.67 µM and 1.77 µM and 1.5 µM | > 10 µM and 9.44 µM and 8.18 µM | 1.86 µM and 1.99 µM and 1.82 µM | 4.76 µM and 5.11 µM and 4.9 µM | 1.85 µM and 2.1 µM and 2.09 µM | 4.59 µM and 4.55 µM and 5.49 µM | 3.68 µM and 2.54 µM and 3.86 µM | > 10 µM and 12.9 µM and 18 µM
COc1cc2[nH]c(C(=O)c3cc(OC)c(OC)c(OC)c3)c(N)c2cc1C#CCO | 0.322 µM | > 100 µM | – | – | 1.4 µM | 98.3 µM | 0.969 µM | > 100 µM | 0.515 µM | > 100 µM | 0.138 µM | 0.491 µM | 0.087 µM | 1.3 µM | 0.775 µM | > 100 µM
CCC1CCc2nc3sc(C(=O)Nc4ccccc4F)c(N)c3cc2C1 (stereo not drawn) | > 100 µM | > 100 µM | 1.18 µM | > 100 µM | > 100 µM | > 100 µM | > 100 µM | > 100 µM | > 100 µM | > 100 µM | – | > 100 µM | 0.656 µM | > 100 µM | > 100 µM | > 100 µM
CCN1C(C)=NC2C(=O)c3ccccc3C(=O)C21 (stereo not drawn) | – | > 100 µM | – | > 100 µM | – | > 100 µM | – | > 100 µM | – | > 100 µM | – | > 100 µM | – | 68 µM | – | 79.3 µM
O=C1C2CC3C(CC2C(=O)[N]1[Sn]([c]1ccccc1)([c]1ccccc1)[c]1ccccc1)C1(Cl)C(Cl)=C(Cl)C3(Cl)C1(Cl)Cl (stereo not drawn) | 0.192 µM | 0.427 µM | 0.0863 µM | 0.26 µM | 0.17 µM | 0.448 µM | 0.14 µM | 0.347 µM | 0.112 µM | 0.243 µM | 0.179 µM | 0.369 µM | 0.145 µM | 0.301 µM | 0.122 µM | 0.281 µM
Cc1cc(N(CCOS(C)(=O)=O)CCOS(C)(=O)=O)ccc1C=Nc1ccc(-c2csc(-c3ccccc3)n2)c(Cl)c1 | – | 29.3 µM | – | 7.65 µM | – | 44 µM | – | 15.9 µM | – | 22.2 µM | – | 16.8 µM | – | 16.2 µM | – | 15.8 µM
